Laboratory results taken from patent US11767313B2, “Compounds as nuclear transport modulators and uses thereof” (XWPHARMA LTD., priority 2018, dated 2023).
Like-named read-outs stand apart in the source and are kept apart here.

Experiments:
HCN2 = experiment: CellTiter-Glo cell proliferation assay, HCN2 (normal brain); type: cell-based
Method: (§1) CellTiter-Glo® Luminescent Cell Viability assay (with Promega CellTiter 96® Luminescent CellTiter-Glo® kit) was used to study the proliferation inhibition by test compounds. Compounds were resuspended in DMSO to make a 25 mM stock suspension. Cells of cancer cell lines or normal tissues were seeded in 96-well plates at 1,500 to 5,000 cells/well overnight. Compounds were 2- or 3-fold diluted serially to obtain 10 concentrations. Then, the drugs were added to the cell wells by Bravo (Agilent) and incubated for 72 hours. The cells were lysed by adding CellTiter-Glo® Reagent (per manufacturer's instructions) and subsequently, the luminescence was read using EnVision® (PerkinElmer).
(§2) The percent of growth was calculated as follows. DMSO-treated cells were employed as vehicle control (High control, HC) and culture medium alone was employed as background (Low control, EC). % growth=100×(Lum sample−Lum EC)/(Lum HC−Lum EC). The ICso was calculated by concentration-response curve fitting using Graphpad Prism.
(§3) Hematological cancer cell lines tested included OCI-AML3, MV-4-11, KG-1, Kasumi-1, K562, THP-1; solid cancer cell lines tested included U87MG, U251, T98G, LN229, A172, H460, H2009, A549; normal cell lines tested included HCN2 and 3T3-L1. […] However, they were not toxic to in vitro cultured normal cells.

LN-229 = experiment: CellTiter-Glo cell proliferation assay, LN-229; type: cell-based; conditions: Homo sapiens, LN-229
Method: as §1, §2, §3

T98G = experiment: CellTiter-Glo cell proliferation assay, T98G; type: cell-based; conditions: Homo sapiens, T98G
Method: as §1, §2, §3

XPO1 = XPO1 (Homo sapiens, UniProt O14980); experiment: REV-GFP translocation assay in U2OS cells; type: cell-based; parameters: endogenous in cells; host or cells: U2OS cells stably expressing REV-GFP (clones from HD Biosciences); conditions: for IC50: Table 10
Chain of XPO1 (O14980 whole entry): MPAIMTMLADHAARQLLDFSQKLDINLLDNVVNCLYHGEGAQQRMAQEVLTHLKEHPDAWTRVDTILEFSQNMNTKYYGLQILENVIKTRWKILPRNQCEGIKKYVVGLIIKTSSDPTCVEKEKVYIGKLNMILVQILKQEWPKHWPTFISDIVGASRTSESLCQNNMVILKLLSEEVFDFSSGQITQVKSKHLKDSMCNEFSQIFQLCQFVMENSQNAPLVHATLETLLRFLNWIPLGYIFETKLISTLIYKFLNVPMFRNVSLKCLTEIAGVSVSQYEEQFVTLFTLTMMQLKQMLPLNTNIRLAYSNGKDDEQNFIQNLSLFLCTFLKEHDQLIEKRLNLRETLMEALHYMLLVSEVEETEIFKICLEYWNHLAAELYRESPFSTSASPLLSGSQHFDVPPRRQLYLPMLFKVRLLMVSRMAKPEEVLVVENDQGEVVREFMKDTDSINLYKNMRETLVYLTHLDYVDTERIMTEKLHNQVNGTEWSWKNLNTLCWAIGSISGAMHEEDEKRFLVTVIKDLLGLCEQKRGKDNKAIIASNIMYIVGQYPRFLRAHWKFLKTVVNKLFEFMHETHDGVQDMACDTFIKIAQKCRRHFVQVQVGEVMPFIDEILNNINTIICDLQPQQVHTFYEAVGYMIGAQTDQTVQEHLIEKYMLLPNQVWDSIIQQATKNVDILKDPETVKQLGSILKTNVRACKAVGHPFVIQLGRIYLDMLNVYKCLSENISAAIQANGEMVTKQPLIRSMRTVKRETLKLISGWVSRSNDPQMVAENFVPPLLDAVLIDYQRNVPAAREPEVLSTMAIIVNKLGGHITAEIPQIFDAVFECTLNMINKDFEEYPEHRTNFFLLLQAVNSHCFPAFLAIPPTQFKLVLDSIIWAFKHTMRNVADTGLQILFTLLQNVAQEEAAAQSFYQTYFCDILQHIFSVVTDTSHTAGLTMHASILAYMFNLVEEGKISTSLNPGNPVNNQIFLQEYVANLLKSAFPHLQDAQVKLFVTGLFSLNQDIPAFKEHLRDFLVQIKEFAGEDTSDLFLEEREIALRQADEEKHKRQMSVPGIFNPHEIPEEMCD
In short: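 U2OS REV-GFP cells treated for 1 h at 37° C with compounds (top concentration 10 μM, serially diluted), with LMB (top 50 nM) as positive control. Fixed in 4% formaldehyde, Hoechst-stained, and imaged by high-content imaging (20×). % effect of REV nuclear translocation normalised to 50 nM LMB and vehicle signals.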

U251 = experiment: CellTiter-Glo cell proliferation assay, U251; type: cell-based; conditions: Homo sapiens, U-251
Method: as §1, §2, §3

U87MG = experiment: CellTiter-Glo cell proliferation assay, U87MG; type: cell-based, human; conditions: for IC50: Homo sapiens, U-87 MG
In short: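 Cells were seeded at 1,500–5,000 per well overnight, then exposed for 72 h to a 10-point 2- or 3-fold compound dilution series. Viability was read by CellTiter-Glo luminescence as % growth relative to DMSO (high) and medium-only (low) controls. IC50 came from concentration-response curve fitting.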

[1] = Pharmacokinetic profile in plasma; type: in vivo; conditions: P.O., mice
Method: (§4) Blood was collected from mice (n=3, or 5) to contribute to the total of 10 time points (pre-dose, 5 min, 15 min, 30 min, 1 hour, 2 hours, 4 hours, 8 hours, 12 hours and 24 hours). At the designated time points, animals were anaesthetized under isoflurane, and approximately 110 μL of blood per time point was collected via retro-orbital puncture into pre-cooled K2EDTA tubes. Blood samples were put on wet ice and centrifuged (2000 g, 5 min at 4° C.) to obtain plasma within 30 minutes of sample collection. All samples were stored frozen at approximately −80° C. until analysis. Prior to analysis, samples were mixed with internal standard in acetonitrile, vortexed, centrifuged, and supernatant was injected for analysis. Concentration of compounds in plasma was determined using LC-MS-MS instrumentation (API 4000, Triple Quadrupole LC/MS/MS Mass Spectrometer). AUC values were calculated using Phoenix Win Nonlin 6.3 software package, PO-Noncompartmental model 200 (extravascular input).

[2] = Pharmacokinetic profile summary; type: in vivo, mice or rats; conditions: for bioavailability / Kp at 1 h: oral; for bioavailability / half-life: mice or rats; for AUC / Cmax: po; for Kp at 1 h: brain/plasma, read-out: B/P ratio (Cmax time) 10 mpk
Method: as §4
Following collection, brain tissue was rinsed with cold saline, dried on filter paper, weighed and snap-frozen by placing on dry ice. All samples were stored frozen at approximately −80° C. until analysis. At the time of analysis, brain tissue was homogenized (homogenizing solution PBS, pH 7.4), mixed with internal standard in acetonitrile, vortexed, centrifuged, and supernatant was injected for analysis. Concentration of compounds in plasma was determined using LC-MS-MS instrumentation (API 4000, Triple Quadrupole LC/MS/MS Mass Spectrometer). Plasma samples were treated with the identical method (except homogenization step) and the concentration of compound in each matrix was calculated based on generated standard curves.
The pharmacokinetic profile of test compounds in mice or rats was determined from several test compounds was determined using the methods described in Example 22.

[3] = 72 h, HCN2 normal cell line, 72 hours, Table 1, read-out: Growth inhibition (IC50)
[4] = Table 11, read-out: Absolute IC50 (μM) LN-229
[5] = Table 11, read-out: Absolute IC50 (μM) T98G
[6] = REV-EGFP U2OS cells, 1 h, Table 2, read-out: Rev-GFP/EC50
[7] = first (or only) value of the cell
[8] = Table 13, read-out: Rev-GFP assay/μM
[9] = Table 11, read-out: Absolute IC50 (μM) U251
[10] = 72 h, U87MG, 72 hours, Table 1, read-out: Growth inhibition (IC50)
[11] = Table 9, first value column, read-out: U87MG IC50
[12] = Table 9, second value column, read-out: U87MG IC50
[13] = 10 mg/kg, plasma, 10 mpk, read-out: Cmax (ng/ml) plasma/10 mpk
[14] = 72 hours, Table 1, read-out: Growth inhibition (IC50)

Row | Structure (SMILES) | IC50 (HCN2; [3]) | IC50 (HCN2; Table 9, read-out: HCN2 IC50) | IC50 (LN-229; [4]) | IC50 (T98G; [5]) | EC50 (XPO1; [6]) | IC50 (XPO1; [7]) | IC50 (XPO1; second value of the cell) | EC50 (XPO1; [8]) | IC50 (U251; [9]) | IC50 (U87MG; [10]) | IC50 (U87MG; [11]) | IC50 (U87MG; [12]) | bioavailability ([2]; plasma) | AUC ([2]; plasma, 10 mg/kg, 10 mpk) | half-life ([2]; plasma) | Cmax [2, 13] | Kp at 1 h ([2]; rat, 10 mg/kg) | also measured
1 | O=C(/C=C\n1cnc(-c2cc(C(F)(F)F)cc(S(F)(F)(F)(F)F)c2)n1)NNc1cnccn1 [Compound I, (Z)-3-(3-(3-(pentafluorosulfanyl)-5-(trifluoromethyl)phenyl)-1H-1,2,4-triazol-1-yl)-N′-(pyrazin-2-yl)acrylohydrazide] | 25800 nM | 25800 nM | 0.6 µM | 1.7 µM | 0.012 µM | 16.3 nM | 7.7 nM | 0.012 µM | 1.2 µM | 592 nM | 384 nM | 798 nM | 98% | 10000 ng·h/mL | 4.7 h | 2550 ng/mL | 0.71 | HCN2 Max % inh (HCN2; Table 8): 22%; IC50 (HCN2; Table 8, read-out: HCN2 IC50): > 50000 nM; IC50 (U87MG; Table 6, read-out: U87MG IC50): 226 nM; AUG0-inf [1]: 10430 ng·h/mL; Cmax ([1]; mouse, po): 2550 ng/mL; Tmax ([1]; mouse, po): 0.75 h; half-life ([1]; mouse, po): 4.72 h; MRT inf ([1]; mouse, po, read-out: MRT0-inf): 5.55 h; MRT last ([1]; mouse, po, read-out: MRT0-last): 4.51 h; Cmax ([2]; rat, 10 mg/kg, 10 mpk, first number of Plasma/brain pair, read-out: Cmax/(ng/mL) Plasma): 1890 ng/mL; Cmax ([2]; rat, 10 mg/kg, 10 mpk, second number of Plasma/brain pair, read-out: Cmax/(ng/mL) brain): 1300 ng/mL
2 | CC(C)(C)C(=O)NNC(=O)/C=C\n1cnc(-c2cc(C(F)(F)F)cc(S(F)(F)(F)(F)F)c2)n1 [Compound III, (Z)-3-(3-(3-(Pentafluorosulfanyl)-5-(trifluoromethyl)phenyl)-1H-1,2,4-triazol-1-yl)-N′-pivaloylacrylohydrazide] | > 50000 nM | > 50000 nM | 1.8 µM | 6.2 µM | 0.211 µM | 298 nM | 125 nM | 0.21 µM | 3.8 µM | 1740 nM | 1120 nM | 2360 nM | 82% | 13900 ng·h/mL | 5.2 h | 1600 ng/mL | 0.95 | IC50 (LN-229; [14]): 1.8 µM; IC50 (T98G; [14]): 6.25 µM; cell viability in REV-GFP assay (XPO1; 1 h, all concentrations tested): no decrease in cell viability; EC90 (XPO1; U2OS, concentration stated as EC90 in washout study, read-out: EC90 (REV-EGFP translocation)): 400 nM; EC50 (XPO1; concentration stated as EC50 in washout study, read-out: EC50 (REV-EGFP translocation)): 0.12 µM; IC50 (U251; U251, 72 hours, Table 1, read-out: Growth inhibition (IC50)): 3.77 µM; IC50 (U87MG; U87MG, Table 12, read-out: Relative IC50): 200 nM; Max % Inhibition (U87MG; U87MG, Table 12): 46.3%; Bottom (U87MG; U87MG, curve fit, Table 12): −4.2; Hill Slope (U87MG; U87MG, curve fit, Table 12): 3.2; Top (U87MG; U87MG, curve fit, Table 12): 40.2; Cmax ([2]; 3 mg/kg, 3 mpk, first number of Plasma/brain pair, read-out: Cmax/(ng/mL) Plasma): 1250 ng/mL; Cmax ([2]; 3 mg/kg, 3 mpk, second number of Plasma/brain pair, read-out: Cmax/(ng/mL) brain): 1190 ng/mL
